Data set [1] addresses T1, cloned human 5-HT1A receptors (Homo sapiens, UniProt P08908).
T1 construct: expressed in transfected cells; host or cells: HeLa cells (HA7)
T1 sequence (P08908 1-422): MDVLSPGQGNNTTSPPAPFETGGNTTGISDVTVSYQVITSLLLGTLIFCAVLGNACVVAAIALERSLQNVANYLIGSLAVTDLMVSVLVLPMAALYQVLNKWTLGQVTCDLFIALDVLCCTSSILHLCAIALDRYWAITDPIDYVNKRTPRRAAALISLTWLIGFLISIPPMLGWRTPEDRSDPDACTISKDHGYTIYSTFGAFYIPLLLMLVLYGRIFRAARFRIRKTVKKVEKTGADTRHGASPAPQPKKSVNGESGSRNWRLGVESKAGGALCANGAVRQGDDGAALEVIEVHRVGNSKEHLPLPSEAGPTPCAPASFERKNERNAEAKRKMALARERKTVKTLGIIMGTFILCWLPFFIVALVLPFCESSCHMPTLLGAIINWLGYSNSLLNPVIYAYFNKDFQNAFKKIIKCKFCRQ
Description: Inhibition of 3H-5-CT binding to human 5-HT1A receptors. The conditions noted are these: cloned human 5-HT1A receptors in HeLa cells (HA7). An outline of the steps:
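Cloned human 5-HT1A receptors stably expressed in transfected HeLa cells (HA7); 40 μg cell homogenate incubated 15 min at 37° C in 50 mM Tris pH 7.7 with 3H-5-CT. Non-specific binding defined with 10 μM metergoline; bound radioligand separated by rapid GF/B filtration and counted.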

In data set [2] the target is T2, human cloned dopamine D4.2 receptors (Homo sapiens, UniProt P21917, DEL265-296).
T2 construct: expressed in transfected cells; host or cells: CHO cells
T2 sequence (P21917 with tags, fused parts or gaps DEL265-296): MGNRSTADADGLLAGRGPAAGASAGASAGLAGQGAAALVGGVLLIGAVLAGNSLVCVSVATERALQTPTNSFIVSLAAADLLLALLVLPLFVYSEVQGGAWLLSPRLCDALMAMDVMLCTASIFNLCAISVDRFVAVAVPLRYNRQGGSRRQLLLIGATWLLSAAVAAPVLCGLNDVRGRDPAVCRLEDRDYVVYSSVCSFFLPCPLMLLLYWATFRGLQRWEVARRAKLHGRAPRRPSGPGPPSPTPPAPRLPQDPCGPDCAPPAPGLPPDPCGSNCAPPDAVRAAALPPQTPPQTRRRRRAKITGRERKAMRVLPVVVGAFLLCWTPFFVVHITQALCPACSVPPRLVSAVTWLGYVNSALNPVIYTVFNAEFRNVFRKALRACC
Description: Inhibition of the binding of 3H-YM-09151-2 to human dopamine D4 receptors. The conditions noted are these: human cloned dopamine D4.2 receptors in CHO-cells. An outline of the steps:
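Radioligand displacement of [3H]YM-09151-2 (0.06 nM) from membranes of CHO cells expressing cloned human D4.2 receptors, measured in vitro.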

Each structure is given as a SMILES string. Structures can show the parent of a compound that is named as a salt.

In turn, `Fc1cc(F)c(OCCCN2CCN(c3cccc4c3OCCO4)CC2)c(F)c1` (as salt: hydrochloride) [Compound 1c, 1-(2,3-Dihydro-benzo[1,4]dioxin-5-yl)-4-[3-(2,4,6-trifluoro-phenoxy)-propyl]-piperazine] displayed a melting point of 210 to 220 °C. On to `N#Cc1ccc(N2CCN(CCCOc3ccc(F)cc3Br)CC2)c2c1OCCO2` (as salt: oxalate) [Compound 6b, 8-{4-[3-(2-Bromo-4-fluoro-phenoxy)-propyl]-piperazin-1-yl}-2,3-dihydro-benzo[1,4]dioxine-5-carbonitrile], for which the melting point lay in the range of 152 to 154 °C. Molecule `Cc1cc(F)ccc1OCCCN1CCN(c2cccc3c2OCCO3)CC1` (as salt: oxalate) [Compound 1e, 1-(2,3-Dihydro-benzo[1,4]dioxin-5-yl)-4-[3-(4-fluoro-2-methyl-phenoxy)-propyl]-piperazine] had a melting point of 139 to 150 °C.

Regarding `FC(F)(F)c1ccc(OCCCN2CCN(c3cccc4c3OCCO4)CC2)cc1` (as salt: oxalate) [Compound 2b, 1-(2,3-Dihydro-benzo[1,4]dioxin-5-yl)-4-[3-(4-trifluoromethyl-phenoxy)-propyl]-piperazine], the melting point fell in the range of 148 to 150 °C.

With `Clc1cccc(Cl)c1OCCCN1CCN(c2cccc3c2OCCO3)CC1` (as salt: oxalate) [Compound 1b, 1-[3-(2,6-Dichloro-phenoxy)-propyl]-4-(2,3-dihydro-benzo[1,4]dioxin-5-yl)-piperazine], the melting point lay within 179 to 181 °C. As to `Fc1ccccc1OCCCN1CCN(c2cccc3c2OCCO3)CC1` (as salt: oxalate) [Compound 2c, 1-(2,3-Dihydro-benzo[1,4]dioxin-5-yl)-4-[3-(2-fluoro-phenoxy)-propyl]-piperazine], the melting point fell in the range of 167 to 169 °C.

In turn, `Fc1ccc(OCCCCN2CCN(c3cccc4ccsc34)CC2)c(Cl)c1` (as salt: hydrochloride) [Compound 2f, 1-Benzo[b]thiophen-7-yl-4-[4-(2-chloro-4-fluoro-phenoxy)-butyl]-piperazine] showed a melting point of 193 to 195 °C. On to `N#Cc1ccc(N2CCN(CCCOc3ccccc3Cl)CC2)c2c1OCCO2` (as salt: oxalate) [Compound 6c, 8-{4-[3-(2-Chloro-phenoxy)-propyl]-piperazin-1-yl}-2,3-dihydro-benzo[1,4]dioxine-5-carbonitrile], for which the melting point was in the range of 96 to 98 °C. Molecule `Fc1ccc(SCCN2CCN(c3cccc4c3OCCO4)CC2)cc1` (as salt: oxalate) [Compound 3b, 1-(2,3-Dihydro-benzo[1,4]dioxin-5-yl)-4-[2-(4-fluoro-phenylsulfanyl)-ethyl]-piperazine] had a melting point of 200 to 202 °C. `COc1cc(F)ccc1OCCCN1CCN(c2cccc3c2OCCO3)CC1` (as salt: oxalate) [Compound 1d, 1-(2,3-Dihydro-benzo[1,4]dioxin-5-yl)-4-[3-(4-fluoro-2-methoxy-phenoxy)-propyl]-piperazine] came in with a melting point of 141 to 142 °C. Take `Clc1cccc(Cl)c1SCCN1CCN(c2cccc3c2OCCO3)CC1` (as salt: oxalate) [Compound 3d, 1-[2-(2,6-Dichloro-phenylsulfanyl)-ethyl]-4-(2,3-dihydro-benzo[1,4]dioxin-5-yl)-piperazine]: the melting point was 188 to 191 °C (dec.). `Fc1ccc(SCCCN2CCN(c3cccc4ccsc34)CC2)c(Cl)c1` (as salt: hydrochloride) [Compound 2e, 1-Benzo[b]thiophen-7-yl-4-[3-(2-chloro-4-fluoro-phenylsulfanyl)-propyl]-piperazine]: the melting point is 216 to 219 °C. Take `CC1(C)COc2c(N3CCN(CCCOc4c(Cl)cc(S(C)(=O)=O)cc4Cl)CC3)cc(Cl)cc21` [Compound 5bi, 1-(5-Chloro-3,3-dimethyl-2,3-dihydro-benzofuran-7-yl)-4-[3-(2,6-dichloro-4-methanesulfonyl-phenoxy)-propyl]-piperazine]: the IC50 was found to be 3.5 nM in data set [1] and 87 nM in data set [2]. Turning to `Cc1cc(F)ccc1OCCCN1CCN(c2cccc3c2OCCO3)CC1` [Compound 1e, 1-(2,3-Dihydro-benzo[1,4]dioxin-5-yl)-4-[3-(4-fluoro-2-methyl-phenoxy)-propyl]-piperazine], the IC50 turned out to be 4.5 nM in data set [1] and 1.3 nM in data set [2].
